# Measurements as given in patent US9023821B2, “Use of MicroRNA for treating diseases associated with a dysfunction of the cilia in multiciliated epithelial cells” (Centre National de la Recherche Scientifique, priority 2009, dated 2015).
# Legend:
# [1] = system: human airway epithelial cells (HAECs); experiment: High-throughput sequencing (HTS) of miRNAs at four stages of differentiation of HAECs
# Procedure, shortened: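 Total RNA (with small RNAs) from air-liquid-interface HAECs at ALI-D0, D7, first cilia (~14 d) and fully differentiated (~21 d); adaptor-ligated SOLiD small-RNA libraries, RT-PCR, gel-selected ~105-150 bases. Counts normalized to 10^6 sequences as % abundance; linear-model/empirical Bayes; kept >1% abundance, |Log2 Ratio| <0.5, adjusted P <0.05.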
# [2] = system: human airway epithelial cells (HAECs); experiment: Agilent miRNA chips, miRNA expression at four stages of differentiation of HAECs
# Procedure, shortened: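 Expression read from hybridization signals on Human miRNA Microarray v2 arrays spanning all miRBase v.12.0 human miRNAs plus 89 viral ones. Samples are RNA from the same patients profiled by sequencing, labelled with the standard kit.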
# [3] = system: basal cells and pyramidal cells of the airway epithelium; experiment: miRNA expression in sorted basal cells versus pyramidal cells (ciliated + secretory), HTS and Agilent chips; set-up: species or system human
# Procedure, shortened: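 Nasal polyp or concha epithelial cells from 3 donors FACS-sorted into CD151+/tissue factor+ basal cells and CD151−/TF− pyramidal (ciliated plus mucus-secreting) cells, excluding dead (DAPI) cells and doublets. miRNA profiles from total RNA obtained by Agilent chips or high-throughput sequencing.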
substance,measurement,setting,value
"hsa-miR-34c-5p: human miRNA, SEQ ID No. 40 (AGGCAGUGUAGUUAGCUGAUUGC; expressed or natural sequence; listed as Homo sapiens)","Modulation (ratio of the level of intensity of expression in log2 in two stages of differentiation) measured by high-throughput sequencing, D7 − D0","[1]; D7 − D0, Table VI",1.33 log2
same,"Modulation (ratio of the level of intensity of expression in log2 in two stages of differentiation) measured by high-throughput sequencing, FC − D7","[1]; FC − D7, Table VI",4.02 log2
same,"Modulation (ratio of the level of intensity of expression in log2 in two stages of differentiation), D7 − D0",[1]; HTS,1.33 log2
same,"Modulation (ratio of the level of intensity of expression in log2 in two stages of differentiation), FC − D7",[1]; HTS,4.02 log2
same,"Modulation (ratio of the level of intensity of expression in log2 in two stages of differentiation), WD − FC",[1]; HTS,1.06 log2
same,"Abundance (%), D0","[1]; HTS, ALI-D0",0.05%
same,"Abundance (%), D7","[1]; HTS, ALI-D7",0.13%
same,"Abundance (%), FC","[1]; HTS, ALI-FC",2.05%
same,"Abundance (%), WD","[1]; HTS, ALI-WD",3.23%
same,"Modulation (ratio of the level of intensity of expression in log2 in two stages of differentiation) measured by high-throughput sequencing, WD − D0","[1]; WD − D0, Table VI",6.41 log2
same,"Modulation (ratio of the level of intensity of expression in log2 in two stages of differentiation) measured by high-throughput sequencing, WD − FC","[1]; WD − FC, Table VI",1.06 log2
same,Level of intensity of expression in log2 At the differentiated stage (WD) measured in HTS,"[1]; healthy human airway epithelial tissue, stage WD",0.01 log2
same,"Level of intensity of expression in log2 measured by high-throughput sequencing, D0","[1]; stage D0, Table VI",7.88 log2
same,"Level of intensity of expression in log2 measured by high-throughput sequencing, D7","[1]; stage D7, Table VI",9.21 log2
same,"Level of intensity of expression in log2 measured by high-throughput sequencing, FC","[1]; stage FC, Table VI",13.23 log2
same,"Level of intensity of expression in log2 measured by high-throughput sequencing, WD","[1]; stage WD, Table VI",14.29 log2
same,"Modulation (ratio of the level of intensity of expression in log2 in two stages of differentiation) measured with the Agilent chips, D7 − D0","[2]; D7 − D0, Table VI",2.35 log2
same,"Modulation (ratio of the level of intensity of expression in log2 at two stages of differentiation), FC − D7","[2]; FC − D7, Agilent miRNA chips, Table V",4.27 log2
same,"Modulation (ratio of the level of intensity of expression in log2 in two stages of differentiation) measured with the Agilent chips, FC − D7","[2]; FC − D7, Table VI",4.27 log2
same,"Modulation (ratio of the level of intensity of expression in log2 in two stages of differentiation) measured with the Agilent chips, WD − D0","[2]; WD − D0, Table VI",7.44 log2
same,"Modulation (ratio of the level of intensity of expression in log2 at two stages of differentiation), WD − FC","[2]; WD − FC, Agilent miRNA chips, Table V",0.82 log2
same,"Modulation (ratio of the level of intensity of expression in log2 in two stages of differentiation) measured with the Agilent chips, WD − FC","[2]; WD − FC, Table VI",0.82 log2
same,"Level of intensity of expression in log2 measured with the Agilent chips, D0","[2]; stage D0, Table VI",3.94 log2
same,"Level of intensity of expression in log2 measured with the Agilent chips, D7","[2]; stage D7, Table VI",6.29 log2
same,"Level of intensity of expression in log2 measured with the Agilent chips, FC","[2]; stage FC, Table VI",10.56 log2
same,"Level of intensity of expression in log2 measured with the Agilent chips, WD","[2]; stage WD, Table VI",11.39 log2
same,Modulation of expression of the miRNAs in pyramidal cells (323(−)) relative to basal cells 323(+),[3]; HTS and Agilent chips,5.74
same,Intensity of the level of expression in log2 in basal cells (323(+)),[3]; basal cells,4.75 log2
same,Intensity of the level of expression in log2 in pyramidal cells (323(−)),[3]; pyramidal cells (ciliated + secretory),10.49 log2
